{"source": "patent US12077503B2", "about": "“Substituted cyclic amides and their use as herbicides” (FMC CORPORATION, priority 2015, dated 2024)", "type_in_all_cases": "in vivo", "key": {"[1]": {"tested_on": "blackgrass (Alopecurus myosuroides)", "assay": "Test A postemergence", "conditions": "Alopecurus myosuroides, post-emergence, 240 h, read-out: Blackgrass plant response rating (0 to 100 scale)", "summary_of_the_method": "(§1)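 Treatment is preemergence as a directed soil spray after planting, or postemergence at the one- to two-leaf stage, with test chemical in a non-phytotoxic solvent mixture plus surfactant. Plants stay in the greenhouse about 10 d before visual injury scoring on a 0 to 100 scale versus untreated controls.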"}, "[2]": {"tested_on": "wheat (Triticum aestivum)", "assay": "Test A postemergence", "conditions": "Triticum aestivum, post-emergence, 240 h, read-out: Wheat plant response rating (0 to 100 scale)", "summary_of_the_method": "as §1"}, "[3]": {"tested_on": "Galium (catchweed bedstraw, Galium aparine)", "assay": "Test A postemergence", "conditions": "Galium, post-emergence, 240 h, read-out: Galium plant response rating (0 to 100 scale)", "summary_of_the_method": "as §1"}, "corn (Zea mays)": {"tested_on": "corn (Zea mays)", "assay": "Test A postemergence", "conditions": "Zea mays, post-emergence, 240 h, read-out: Corn plant response rating (0 to 100 scale)", "summary_of_the_method": "as §1"}, "[4]": {"tested_on": "pigweed (Amaranthus retroflexus)", "assay": "Test A postemergence", "conditions": "Amaranthus retroflexus, post-emergence, 240 h, read-out: Pigweed plant response rating (0 to 100 scale)", "summary_of_the_method": "as §1"}, "[5]": {"tested_on": "giant foxtail (Setaria faberii)", "assay": "Test A postemergence", "conditions": "Setaria faberi, post-emergence, 240 h, read-out: Foxtail, Giant plant response rating (0 to 100 scale)", "summary_of_the_method": "as §1"}, "[6]": {"tested_on": "ryegrass, Italian (Italian ryegrass, Lolium multiflorum)", "assay": "Test A postemergence", "conditions": "Lolium multiflorum, post-emergence, 240 h, read-out: Ryegrass, Italian plant response rating (0 to 100 scale)", "summary_of_the_method": "as §1"}, "[7]": {"tested_on": "barnyardgrass (Echinochloa crus-galli)", "assay": "Test A postemergence", "conditions": "Echinochloa crus-galli, post-emergence, 240 h, read-out: Barnyardgrass plant response rating (0 to 100 scale)", "summary_of_the_method": "as §1"}, "[8]": {"tested_on": "ragweed (common ragweed, Ambrosia elatior)", "assay": "Test A postemergence", "conditions": "Ambrosia artemisiifolia, post-emergence, 240 h, read-out: Ragweed plant response rating (0 to 100 scale)", "summary_of_the_method": "as §1"}, "Kochia (Kochia scoparia) [9]": {"tested_on": "Kochia (Kochia scoparia)", "assay": "Test A postemergence", "conditions": "Bassia scoparia, post-emergence, 240 h, read-out: Kochia plant response rating (0 to 100 scale)", "summary_of_the_method": "as §1"}, "[10]": {"tested_on": "sedge, umbrella (small-flower umbrella sedge, Cyperus difformis)", "assay": "Test B flooded paddy test", "conditions": "Cyperus difformis, 250 g ai/ha, Flood; 0 to 100 scale where 0 is no effect and 100 is complete control; read-out: Sedge, Umbrella plant response rating", "summary_of_the_method": "(§2)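 Response scored visually against untreated controls, 0 = no effect and 100 = complete control, 13–15 d after treatment in the greenhouse. Compounds added to paddy water held 3 cm above soil surface. Treatment given at 2-leaf stage.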"}, "rice (Oryra sativa)": {"tested_on": "rice (Oryra sativa)", "assay": "Test B flooded paddy test", "conditions": "Oryza sativa, 250 g ai/ha, Flood; 0 to 100 scale where 0 is no effect and 100 is complete control; read-out: Rice plant response rating", "summary_of_the_method": "as §2"}, "[11]": {"tested_on": "ducksalad (Heteranthera limosa)", "assay": "Test B flooded paddy test", "conditions": "Heteranthera limosa, 250 g ai/ha, Flood; 0 to 100 scale where 0 is no effect and 100 is complete control; read-out: Ducksalad plant response rating", "summary_of_the_method": "as §2"}, "[12]": {"tested_on": "barnyardgrass (Echinochloa crus-galli)", "assay": "Test B flooded paddy test", "conditions": "Echinochloa crus-galli, 250 g ai/ha, Flood; 0 to 100 scale where 0 is no effect and 100 is complete control; read-out: Barnyardgrass plant response rating", "summary_of_the_method": "as §2"}, "[13]": {"tested_on": "pigweed (Amaranthus retroflexus)", "assay": "Test A preemergence", "conditions": "Amaranthus retroflexus, pre-emergence, 240 h, 0 to 100 scale where 0 is no effect and 100 is complete control, read-out: Pigweed plant response rating"}, "[14]": {"tested_on": "giant foxtail (Setaria faberii)", "assay": "Test A preemergence", "conditions": "Setaria faberi, pre-emergence, 240 h, 0 to 100 scale where 0 is no effect and 100 is complete control, read-out: Foxtail, Giant plant response rating", "summary_of_the_method": "as §1"}, "[15]": {"tested_on": "ryegrass, Italian (Italian ryegrass, Lolium multiflorum)", "assay": "Test A preemergence", "conditions": "Lolium multiflorum, pre-emergence, 240 h, 0 to 100 scale where 0 is no effect and 100 is complete control, read-out: Ryegrass, Italian plant response rating", "summary_of_the_method": "as §1"}, "[16]": {"tested_on": "barnyardgrass (Echinochloa crus-galli)", "assay": "Test A preemergence", "conditions": "Echinochloa crus-galli, pre-emergence, 240 h, 0 to 100 scale where 0 is no effect and 100 is complete control, read-out: Barnyardgrass plant response rating", "summary_of_the_method": "as §1"}, "[17]": {"tested_on": "ragweed (common ragweed, Ambrosia elatior)", "assay": "Test A preemergence", "conditions": "Ambrosia artemisiifolia, pre-emergence, 240 h, 0 to 100 scale where 0 is no effect and 100 is complete control, read-out: Ragweed plant response rating", "summary_of_the_method": "as §1"}, "Kochia (Kochia scoparia) [18]": {"tested_on": "Kochia (Kochia scoparia)", "assay": "Test A preemergence", "conditions": "Bassia scoparia, pre-emergence, 240 h, 0 to 100 scale where 0 is no effect and 100 is complete control, read-out: Kochia plant response rating", "summary_of_the_method": "as §1"}, "[19]": {"conditions": "125 g ai/ha, postemergence, visual injury vs untreated controls after approx. 10 d, 0 = no effect, 100 = complete control"}, "[20]": {"conditions": "Postemergence, 31 g ai/ha, 0 is no effect, 100 is complete control"}, "[21]": {"conditions": "125 g ai/ha, preemergence, visual injury rating, approximately 10 d"}}}
{"smiles": "Cc1cc([C@H]2CN(C)C(=O)[C@@H]2C(=O)Nc2cccc(F)c2F)no1", "note": "[Compound 1237]", "values": [{"measurement": "pest or weed control at 125 g/ha", "setting": "[1]; [19]", "value": 0, "unit": "%"}, {"measurement": "pest or weed control at 31 g/ha", "setting": "[1]; [20]", "value": 0, "unit": "%"}, {"measurement": "plant injury at 125 g/ha", "setting": "[2]; [19]", "value": 0, "unit": "%"}, {"measurement": "plant injury at 31 g/ha", "setting": "[2]; [20]", "value": 0, "unit": "%"}, {"measurement": "pest or weed control at 125 g/ha", "setting": "[3]; [19]", "value": 0, "unit": "%"}, {"measurement": "pest or weed control at 31 g/ha", "setting": "[3]; [20]", "value": 0, "unit": "%"}, {"measurement": "plant injury at 125 g/ha", "setting": "corn (Zea mays); [19]", "value": 0, "unit": "%"}, {"measurement": "plant injury at 31 g/ha", "setting": "corn (Zea mays); [20]", "value": 0, "unit": "%"}, {"measurement": "pest or weed control at 125 g/ha", "setting": "[4]; [19]", "value": 0, "unit": "%"}, {"measurement": "pest or weed control at 31 g/ha", "setting": "[4]; [20]", "value": 0, "unit": "%"}, {"measurement": "pest or weed control at 125 g/ha", "setting": "[5]; [19]", "value": 20, "unit": "%"}, {"measurement": "pest or weed control at 31 g/ha", "setting": "[5]; [20]", "value": 0, "unit": "%"}, {"measurement": "pest or weed control at 125 g/ha", "setting": "[6]; [19]", "value": 0, "unit": "%"}, {"measurement": "pest or weed control at 31 g/ha", "setting": "[6]; [20]", "value": 0, "unit": "%"}, {"measurement": "pest or weed control at 125 g/ha", "setting": "[7]; [19]", "value": 20, "unit": "%"}, {"measurement": "pest or weed control at 31 g/ha", "setting": "[7]; [20]", "value": 0, "unit": "%"}, {"measurement": "pest or weed control at 125 g/ha", "setting": "[8]; [19]", "value": 0, "unit": "%"}, {"measurement": "pest or weed control at 31 g/ha", "setting": "[8]; [20]", "value": 0, "unit": "%"}, {"measurement": "pest or weed control at 125 g/ha", "setting": "Kochia (Kochia scoparia) [9]; [19]", "value": 0, "unit": "%"}, {"measurement": "pest or weed control at 31 g/ha", "setting": "Kochia (Kochia scoparia) [9]; [20]", "value": 0, "unit": "%"}, {"measurement": "pest or weed control at 250 g/ha", "setting": "[10]", "value": 0, "unit": "%"}, {"measurement": "pest or weed control at 250 g/ha", "setting": "rice (Oryra sativa)", "value": 0, "unit": "%"}, {"measurement": "pest or weed control at 250 g/ha", "setting": "[11]", "value": 65, "unit": "%"}, {"measurement": "pest or weed control at 250 g/ha", "setting": "[12]", "value": 0, "unit": "%"}, {"measurement": "pest or weed control at 31 g/ha", "setting": "[13]; 31 g ai/ha, Preemergence", "value": 0, "unit": "%"}, {"measurement": "pest or weed control at 125 g/ha", "setting": "[13]; [21]", "value": 0, "unit": "%"}, {"measurement": "pest or weed control at 31 g/ha", "setting": "[14]; 31 g ai/ha, Preemergence", "value": 20, "unit": "%"}, {"measurement": "pest or weed control at 125 g/ha", "setting": "[14]; [21]", "value": 60, "unit": "%"}, {"measurement": "pest or weed control at 31 g/ha", "setting": "[15]; 31 g ai/ha, Preemergence", "value": 0, "unit": "%"}, {"measurement": "pest or weed control at 125 g/ha", "setting": "[15]; [21]", "value": 0, "unit": "%"}, {"measurement": "pest or weed control at 31 g/ha", "setting": "[16]; 31 g ai/ha, Preemergence", "value": 0, "unit": "%"}, {"measurement": "pest or weed control at 125 g/ha", "setting": "[16]; [21]", "value": 70, "unit": "%"}, {"measurement": "pest or weed control at 31 g/ha", "setting": "[17]; 31 g ai/ha, Preemergence", "value": 0, "unit": "%"}, {"measurement": "pest or weed control at 125 g/ha", "setting": "[17]; [21]", "value": 0, "unit": "%"}, {"measurement": "pest or weed control at 31 g/ha", "setting": "Kochia (Kochia scoparia) [18]; 31 g ai/ha, Preemergence", "value": 0, "unit": "%"}, {"measurement": "pest or weed control at 125 g/ha", "setting": "Kochia (Kochia scoparia) [18]; [21]", "value": 0, "unit": "%"}]}
